The values below come from patent US11358973B2, “Di(hetero)aryl macrocyclic compound for inhibiting protein kinase activity” (Shenzhen TargetRx, Inc., priority 2018, dated 2022).

Like-named read-outs stand apart in the source and are kept apart here.

For data set [1], the target named is TRKC kinase (Homo sapiens, UniProt Q16288). The data set is described as follows: Biochemical kinase analysis (HTRF), TRKC. The following applies: 23° C., read-out: Kinase IC50 (nM) TRK C. Here is the method:
(§1) Inhibition of TRKA, TRKB, TRKC kinases can be measured by HTRF ([…]) method. The reaction was performed in a 384-well plate at 23° C. with a volume of 20 μL. TRKA TRKB or TRKC kinase were mixed with pre-formulated and diluted compounds of different concentrations for ten minutes in duplicate for each concentration, wherein 11 concentrations made with a 3-fold gradient dilution from the starting concentration of 300 nM were made and the final concentration of DMSO was 2%. The corresponding substrate and ATP were added thereto, and reacted at room temperature for 20 minutes (both a negative and a positive control were set: negative control is blank control, positive control is Entrectinib). After the reaction, detection reagent was added thereto (reagent in HTRF Kinase TK kit), and after incubation at room temperature for 30 minutes, detection was carried out by PerkinElmer Envision microplate reader for determining enzyme activity in the presence of the compounds of the present disclosure at various concentrations, and the inhibitory activity of different concentrations of compounds against enzyme activity was calculated. After that, in accordance with four-factors function and Graphpad 5.0 software, inhibitory activity on enzyme activity under different concentrations of compounds was fitted and IC50 values were calculated.
In general terms: Time-resolved FRET reads energy transfer from a long-lived donor to a nearby acceptor.

The nature of data set [2]: Pharmacokinetic experiment in rats. More on the design: Cl_pred (L/kg): unit not given here. The format is in vivo, Sprague-Dawley rats. As to conditions: rat; for AUC(0-t) / Cmax / Tmax / half-life / AUC(0-inf) / MRT inf / bioavailability: male, Sprague-Dawley, plasma; for AUC(0-inf): read-out: AUCINF_pred; for MRT inf: read-out: MRTINF_pred; for bioavailability: PO 10 mg/kg vs IV 3 mg/kg. Here is the method: 6 male Sprague-Dawley rats (7-8 weeks old, and weighing approximately 210 g) were divided into 2 groups with 3 rats in each group. The rats were intravenously or orally administered a single dose of compounds (3 mg/kg intravenously, 10 mg/kg orally) to compare pharmacokinetic differences.
The rats were feeded on standard food and water. Fasting was started 16 hours before the test. The drug was dissolved in PEG400 and dimethyl sulfoxide. The blood samples were collected from eyelids at the time points of 0.083 hour, 0.25 hour, 0.5 hour, 1 hour, 2 hours, 4 hours, 6 hours, 8 hours, 12 hours, and 24 hours after administration.
Rats were briefly anesthetized after inhalation of diethyl ether and 300 μL of blood sample was collected from the eyelids into test tubes. There was 30 μL of 1% heparin salt solution in the test tube. Tubes were dried at 60° C. overnight before use. After the blood sample was collected at the last time point, the rats were sacrificed after ether anesthesia.
Immediately after the collection of the blood sample, the test tube was gently inverted at least 5 times to ensure sufficient mixing and then placed on ice. The blood sample was centrifuged at 5000 rpm at 4° C. for 5 minutes to separate the plasma from the red blood cells. 100 μL of plasma was aspirated into a clean plastic centrifuge tube with a pipette, marking with the name of the compound and time point. Plasma was stored at −80° C. prior to analysis. The concentration of the compound of the present disclosure in plasma was determined by LC-MS/MS. The pharmacokinetic parameters were calculated based on the blood concentration of the drug for each animal at different time points.

Data set [3] addresses TRKB kinase (Homo sapiens, UniProt Q16620). The data set is described as follows: Biochemical kinase analysis (HTRF), TRKB. As to conditions: 23° C., read-out: Kinase IC50 (nM) TRK B. Here is the method:
as §1

Data set [4] has as its target TRKA kinase (Homo sapiens, UniProt P04629). The data set is described as follows: Biochemical kinase analysis (HTRF), TRKA. As to conditions: 23° C., read-out: Kinase IC50 (nM) TRK A. Here is the method:
as §1

Data set [5] has as its system KM12 cell line. The data set is described as follows: KM12 cell proliferation analysis (CellTiter-Glo). The format is cell-based. As to conditions: Homo sapiens, 72 h. Here is the method:
The CGT method was used to detect the in vitro anti-proliferative activity of the compounds of the present disclosure on tumor cells cultured in vitro. The KM12 cell line was maintained in RPMI-1640 medium containing 10% fetal bovine serum and antibiotics, the cells in the logarithmic growth phase were harvested and planted in a 96-well plate. The plate was incubated in an incubator at 37° C., containing 5% carbon dioxide gas overnight. After the test compounds were dissolved in DMSO, a 3-fold concentration gradient dilution with 9 compound concentrations was made. Pre-prepared compounds of different concentrations were transferred to the cell plate in triplicate for each concentration, and continue culturing for 72 h. The final concentration of DMSO in the system was 0.1%, and the initial concentration of the test compound was 300 nM.
CellTiter-Glo reagent was added to the cell plate, and incubated at room temperature for 30 minutes to stabilize the optical signal. Detection was carried out by PerkinElmer Envision microplate reader for determining the inhibitory activity of the compound of the present disclosure at various concentrations on cell proliferation. The inhibitory activity of compounds at different concentrations on cell proliferation was fitted according to Graphpad 5.0 software, and IC50 values were calculated.
In general terms: In ATP-based viability assays light output follows the ATP content of the culture.

Sequence of TRKA kinase (P04629 33-796): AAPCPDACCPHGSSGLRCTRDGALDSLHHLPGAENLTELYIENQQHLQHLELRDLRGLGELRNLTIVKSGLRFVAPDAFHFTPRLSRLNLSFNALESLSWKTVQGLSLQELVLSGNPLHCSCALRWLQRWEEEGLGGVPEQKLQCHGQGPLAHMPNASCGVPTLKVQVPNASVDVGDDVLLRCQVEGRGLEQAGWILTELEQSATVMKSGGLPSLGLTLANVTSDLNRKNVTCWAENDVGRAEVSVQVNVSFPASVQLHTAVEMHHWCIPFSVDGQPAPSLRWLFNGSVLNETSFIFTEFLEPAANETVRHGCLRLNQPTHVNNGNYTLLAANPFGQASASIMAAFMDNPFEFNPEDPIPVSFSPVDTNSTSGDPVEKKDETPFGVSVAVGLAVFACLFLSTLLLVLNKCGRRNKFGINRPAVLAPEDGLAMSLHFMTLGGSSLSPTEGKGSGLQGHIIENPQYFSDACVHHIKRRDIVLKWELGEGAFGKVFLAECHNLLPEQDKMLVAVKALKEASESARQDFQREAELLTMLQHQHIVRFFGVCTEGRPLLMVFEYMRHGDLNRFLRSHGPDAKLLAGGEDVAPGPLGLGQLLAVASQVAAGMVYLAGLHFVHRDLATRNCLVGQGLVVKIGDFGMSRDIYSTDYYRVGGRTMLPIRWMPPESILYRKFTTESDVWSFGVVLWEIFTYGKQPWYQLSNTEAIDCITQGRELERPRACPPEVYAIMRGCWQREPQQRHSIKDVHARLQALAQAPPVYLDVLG
Sequence of TRKB kinase (Q16620 32-822): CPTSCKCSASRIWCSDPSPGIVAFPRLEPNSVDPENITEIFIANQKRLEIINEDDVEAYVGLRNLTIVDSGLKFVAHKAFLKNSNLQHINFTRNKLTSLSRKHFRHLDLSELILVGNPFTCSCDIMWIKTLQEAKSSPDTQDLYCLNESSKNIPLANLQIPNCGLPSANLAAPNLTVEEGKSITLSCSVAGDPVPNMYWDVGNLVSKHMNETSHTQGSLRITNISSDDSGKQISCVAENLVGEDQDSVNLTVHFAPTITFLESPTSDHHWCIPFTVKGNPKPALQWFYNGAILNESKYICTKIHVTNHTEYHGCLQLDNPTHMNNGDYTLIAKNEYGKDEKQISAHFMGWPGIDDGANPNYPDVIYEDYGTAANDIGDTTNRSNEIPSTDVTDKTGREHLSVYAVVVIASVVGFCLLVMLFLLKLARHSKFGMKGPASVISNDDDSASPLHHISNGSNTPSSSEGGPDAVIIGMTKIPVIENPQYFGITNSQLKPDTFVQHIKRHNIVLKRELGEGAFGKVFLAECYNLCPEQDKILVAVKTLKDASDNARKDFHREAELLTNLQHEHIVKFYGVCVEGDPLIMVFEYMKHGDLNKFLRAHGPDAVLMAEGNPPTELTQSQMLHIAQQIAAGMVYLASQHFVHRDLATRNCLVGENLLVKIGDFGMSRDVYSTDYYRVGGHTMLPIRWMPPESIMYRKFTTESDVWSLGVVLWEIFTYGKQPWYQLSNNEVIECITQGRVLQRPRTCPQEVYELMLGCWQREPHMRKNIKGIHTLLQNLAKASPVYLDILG
Sequence of TRKC kinase (Q16288 32-839): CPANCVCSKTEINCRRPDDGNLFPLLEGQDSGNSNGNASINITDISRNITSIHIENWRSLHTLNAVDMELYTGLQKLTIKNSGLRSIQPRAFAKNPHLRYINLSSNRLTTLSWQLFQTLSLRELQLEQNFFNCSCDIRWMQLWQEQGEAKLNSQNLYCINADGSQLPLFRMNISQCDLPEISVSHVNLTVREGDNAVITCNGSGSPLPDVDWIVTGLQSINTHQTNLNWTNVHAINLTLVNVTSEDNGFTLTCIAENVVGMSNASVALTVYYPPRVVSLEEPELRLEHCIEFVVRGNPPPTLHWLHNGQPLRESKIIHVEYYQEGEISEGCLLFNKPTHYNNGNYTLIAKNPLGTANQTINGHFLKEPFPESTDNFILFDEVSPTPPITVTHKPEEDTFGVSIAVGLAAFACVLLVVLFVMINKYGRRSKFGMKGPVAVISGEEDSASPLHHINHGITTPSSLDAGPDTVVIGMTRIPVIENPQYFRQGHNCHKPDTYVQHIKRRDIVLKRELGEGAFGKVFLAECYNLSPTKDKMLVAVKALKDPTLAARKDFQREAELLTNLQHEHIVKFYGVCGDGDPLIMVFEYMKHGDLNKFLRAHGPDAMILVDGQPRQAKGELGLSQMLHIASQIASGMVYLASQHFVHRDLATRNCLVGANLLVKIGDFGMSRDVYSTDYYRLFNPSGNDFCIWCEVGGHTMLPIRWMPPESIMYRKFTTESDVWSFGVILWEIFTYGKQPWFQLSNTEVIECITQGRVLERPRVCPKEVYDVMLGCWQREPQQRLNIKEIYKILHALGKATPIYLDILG

Take `C[C@H]1CC(=O)Nc2cnn3ccc(nc23)N2CCC[C@@H]2c2cc(F)ccc2O1` [Compound L-2-A, (6R,14S)-9-fluoro-14-methyl-13-oxa-2,17,20,21,24-pentaazapentacyclo[16.5.2.0^2,6.0^7,12.0^21,25]pentacosane-1(24),7,9,11,18(25),19,22-heptaene-16-one]: the 50% inhibitory concentration (IC50) – broadly, the concentration that gives 50% inhibition – in data set [1] came out at 0.1 nM. Moreover, in data set [2] (IV 3 mg/kg), the AUC(0-t) – broadly, exposure summed from dosing to a finite time, without extrapolation to infinity – came out at 2480 ng·h/mL; the maximum concentration (Cmax) (as a rule, the peak of the concentration-time curve) was determined as 1620 ng/mL; the Tmax (in general, the time from dosing to the highest level) was 0.08 h; the half-life (as a rule, how long it takes for the measured level to halve) is 2.41 h. In addition, in data set [2] (IV 3 mg/kg), the AUC(0-inf) was found to be 2480 ng·h/mL, the MRT inf worked out at 1.2 h, the “Cl_pred (L/kg)” value amounted to 1.23 and the “Vz_pred” value is 1.85 L/kg. In data set [2] (PO 10 mg/kg), the area under the curve AUC(0-t) came out at 4470 ng·h/mL, the Cmax was 1410 ng/mL, the Tmax came to 0.5 h and the half-life was 2.02 h. For the same compound, in data set [2] (PO 10 mg/kg), the AUC(0-inf) came to 4530 ng·h/mL, the MRT inf is 2.8 h, the “Cl_pred (L/kg)” value is 2.44 and the “Vz_pred” value is 8.50 L/kg. Further, the bioavailability – broadly, dose-corrected exposure relative to a reference, in per cent – in data set [2] was 54.2%. Moreover, in data set [3], the half-maximal inhibitory concentration (IC50) was 0.1 nM. In data set [4], the IC50 worked out at 0.17 nM. The compound further had an IC50 in data set [5] of 0.25 nM.

With `O=C1CCOc2ccc(F)cc2[C@H]2CCCN2c2ccn3ncc(c3n2)N1` [Compound L-1-A, (6R)-9-fluoro-13-oxa-2,7,20,21,24-pentaazapentacyclo[16.5.2.0^26.0^7,12.0^21,25]pentacosane-1(24),7,9,11,18(25),19,22-heptaene-16-one], in data set [1], the IC50 stood at 0.14 nM. Further, in data set [2] (IV 3 mg/kg), the exposure AUC(0-t) was 5010 ng·h/mL, the highest concentration (Cmax) is 2160 ng/mL, the Tmax stood at 0.08 h and the half-life is 2.2 h. Also, in data set [2] (IV 3 mg/kg), the AUC(0-inf) came out at 5030 ng·h/mL, the MRT inf amounted to 2.18 h, the “Cl_pred (L/kg)” value was found to be 0.60 and the “Vz_pred” value worked out at 1.75 L/kg. In data set [2] (PO 10 mg/kg), the AUC(0-t) is 11300 ng·h/mL, the Cmax worked out at 1490 ng/mL, the Tmax was 1.58 h and the half-life is 5.77 h. For the same compound, in data set [2] (PO 10 mg/kg), the AUC(0-inf) came to 11300 ng·h/mL, the MRT inf stood at 4.9 h, the “Cl_pred (L/kg)” value stood at 0.92 and the “Vz_pred” value was 2.92 L/kg. In data set [2], this compound showed a bioavailability of 67.9%. Further, in data set [3], the IC50 came out at 0.1 nM. In addition, in data set [4], the IC50 was 0.18 nM. Besides, in data set [5], the concentration for half-maximal inhibition (IC50) worked out at 0.55 nM.

Turning to `C[C@H]1CC(=O)Nc2cnn3ccc(nc23)N[C@H](C)c2cc(F)ccc2O1` [Compound T-2-A, (7S,13R)-11-fluoro-7,13-dimethyl-6,7,13,14-tetrahydro-1,15-ethenopyrazolo[4,3-f][1,4,8,10]benzoxatriazacyclotiidecin-5(6H)-one], the IC50 in data set [1] was 0.06 nM. Also, in data set [2] (IV 3 mg/kg), the AUC(0-t) was found to be 6560 ng·h/mL, the peak level (Cmax) was 2100 ng/mL, the Tmax was determined as 0.08 h and the half-life was 5.59 h. Moreover, in data set [2] (IV 3 mg/kg), the AUC(0-inf) was 6620 ng·h/mL, the MRT inf is 3.44 h, the “Cl_pred (L/kg)” value is reported as 0.45 and the “Vz_pred” value was determined as 2.67 L/kg. In addition, in data set [2] (PO 10 mg/kg), the AUC(0-t) came out at 11500 ng·h/mL, the Cmax stood at 994 ng/mL, the Tmax was 2.17 h and the half-life is 4.84 h. In data set [2] (PO 10 mg/kg), the AUC(0-inf) stood at 12900 ng·h/mL, the MRT inf stood at 7.37 h, the “Cl_pred (L/kg)” value was 0.83 and the “Vz_pred” value came to 6.70 L/kg. The bioavailability in data set [2] was 52.7%. The IC50 in data set [3] was determined as 0.1 nM. For the same compound, the concentration for half-maximal inhibition (IC50) in data set [4] was found to be 0.19 nM. Further, in data set [5], the IC50 was 1.6 nM.
